Test [1] has as its system STAT (HEX) (DNA, G4) GGGCTGGGGATGGGGAGGGGG
Kind of test: microscale thermophoresis. The note with it: 10 mM KCl, 20 mM sodium phosphate; pH 7.4, 22 °C, DMSO and Tween 20; said to be submicromolar.

Test [2] relates to cKit1 (HEX) (DNA, G4) GGGAGGGCGCTGGGAGGAGGG
Description: microscale thermophoresis. As to conditions: 10 mM KCl, 20 mM sodium phosphate; pH 7.4, 22 °C, DMSO and Tween 20; said to be submicromolar.

Test [3] has as its system 22CTA (DNA, G4) AGGGCTAGGGCTAGGGCTAGGG
Description: FRET melting. The note with it: 10 mM KCl, 20 mM sodium phosphate, pH 7.4, 20 µM compound.

Test [4] relates to cMyc (DNA, G4) TGAGGGTGGGTAGGGTGGGTAA
Description: FRET melting. As to conditions: 10 mM KCl, 20 mM sodium phosphate; pH 7.4; 20 µM compound, 1 µM DNA.

The test system of test [5] is BclT (DNA, G4) GGGGGCCGTGGGGTGTGAGCTGGGG
Kind of test: FRET melting. As to conditions: 10 mM KCl, 20 mM sodium phosphate; pH 7.4; 20 µM compound, 1 µM DNA.

Test [6] concerns STAT (DNA, G4) GGGCTGGGGATGGGGAGGGGG
Kind of test: FRET melting. The note with it: 10 mM KCl, 20 mM sodium phosphate; pH 7.4; 20 µM compound, 1 µM DNA.

The subject of test [7] is Ct1 (DNA, G4) GGTGACAGGGGTATGGGGAGGGG
Description: FRET melting. The note with it: 10 mM KCl, 20 mM sodium phosphate; pH 7.4; 20 µM compound, 1 µM DNA.

In test [8] the test system is 22AG (DNA, G4) AGGGTTAGGGTTAGGGTTAGGG
Kind of test: FRET melting. The note with it: 10 mM KCl, 20 mM sodium phosphate, pH 7.4, 20 µM compound; for binding: 1 µM DNA (legend of Figure 3 prints them reversed).

Test [9] relates to Hair (DNA, hairpin) GTATAGCTATTTTTATAGCTATA
Description: FRET melting. The note with it: 10 mM KCl, 20 mM sodium phosphate; pH 7.4; 20 µM compound, 1 µM DNA.

The test system of test [10] is cKit1 (DNA, G4) GGGAGGGCGCTGGGAGGAGGG
Description: FRET melting. As to conditions: 10 mM KCl, 20 mM sodium phosphate; pH 7.4; 20 µM compound, 1 µM DNA.

Test [11] concerns VEGF (DNA, G4) GGGAGGGTTGGGGTGGG
Description: FRET melting. As to conditions: 25 mM LiCl, 5 mM sodium phosphate; pH 7.4; 20 µM compound, 1 µM DNA.

`CN(C)CCNC(=O)COc1ccc2c(c1)nc1ccn(CC(=O)NCCN(C)C)c(=O)n12` yielded a Kd in test [1] of 400 nM.
For `NCCNC(=O)Cn1ccc2nc3cc(O)c4ccccc4c3n2c1=O`, the Kd in [1] worked out at 500 nM; in test [2] it was 600 nM.
On to `NCCNC(=O)Cn1ccc2nc3cc(O)ccc3n2c1=O`, for which the thermal shift (ΔTm) in test [3] (1 µM DNA) came out at 1 ± 2 °C; in test [4], 1 ± 2 °C; in test [5] it was 0 ± 2 °C; in [6], 1 ± 2 °C; in [7] it was 2 ± 2 °C; in test [8] (1 µM DNA), 1 ± 2 °C. Also, the values for the shift in melting temperature (ΔTm) in test [9], in [10] and in [11] were -1 ± 2 °C, 3 ± 2 °C and 1 ± 2 °C, respectively.
In the case of `NCCNC(=O)COc1cc2nc3ccn(CC(=O)NCCN)c(=O)n3c2c2ccccc12`, the binding entry in test [3] (1 µM DNA (legend of Figure 3 prints them reversed)) and in [8] was “yes” each time. In [2], this molecule returned a Kd of 500 nM.
On to `N=C(N)NCCNC(=O)COc1cc2nc3ccn(CC(=O)NCCNC(=N)N)c(=O)n3c2c2ccccc12`, for which the binding entry in test [8] is given as “yes”.

(Values after paper PMC10669118 (2023).)
